We go through 21 compounds from patent US20250206745A1, “PYRROLOPYRIDAZINE DERIVATIVES AND RELATED USES” (NodThera Limited, priority 2023, published 2025).

SMILES strings stand for the structures. Structures can show the parent of a compound that is named as a salt.

In test [1] the test system is IL-1β release upon NLRP3 activation in phorbol 12-myristate 13-acetate (PMA)-differentiated THP-1 cells. Put plainly: THP-1 IC50 Determination Assay. The settings on record: Homo sapiens, inhibition of IL-1β release, LPS, nigericin, ELISA. Format: cell-based. The protocol:
The compounds of the present disclosure were tested for their inhibitory activity against IL-1β release upon NLRP3 activation in phorbol 12-myristate 13-acetate (PMA)-differentiated THP-1 cells.
THP-1 cells stored in liquid nitrogen were thawed in a 37° C. water bath. The cells were added into complete RPMI 1640 medium (FBS (56 mL), 100× Penicillin-Streptomycin (5.6 mL) and 0.05 mM 2-Mercaptoethanol in RPMI 1640 Medium (500 mL)) and centrifuged for 5 min at 1000 rpm. The supernatant was discarded and the cells resuspended into new cell culture medium for culturing. Cells were cultured in cell culture medium and passaged every 3-4 days to maintain cell density between 4×10^5 and 1.5×10^6 cells/mL. The cells were diluted to 0.8×10^6 cells/mL and grown in a T150 flask with PMA (final concentration 5 ng/mL). The flask was incubated in a 37° C. incubator with a humidified atmosphere of 5% CO2 for −40 hours. After −40 hours of PMA differentiation, the flask was washed with DPBS. Cells were digested with Trypsin LE for about 5 min at room temperature, and digestion was terminated using complete RPMI 1640 medium. Cells were centrifuged and resuspended (1000 rpm, 3 min). The supernatant was discarded and cells washed with DPBS, centrifuged and resuspended cells (1000 rpm, 5 min). Cells were plated at 30,000 cells/well in a 384-well PP plate and treated with 25 ng/mL LPS solution diluted in serum-free medium (45 μL). The plate was incubated in a 37° C. incubator with a humidified atmosphere of 5% CO2 for 2 hours. Compounds (from 10 mM DMSO solution) were dispensed and serially diluted by 1:3 eight times, with final 0.5% DMSO concentration. NLRP3 inflammasome was activated with nigericin (5 μL), the plate was centrifuged (1000 rpm, 30 s) and incubated in a 37° C. incubator with a humidified atmosphere of […] for 2 hours. 35 μL/well of supernatant was removed and IL-1β levels determined by ELISA assay (Mabtech 3416-1H-20) according to the manufacturer's instructions.
Background: In an ELISA, binding on a coated surface is turned into a signal by an enzyme label.

Test [2] concerns IL-1β release upon NLRP3 activation in peripheral blood mononuclear cells (PBMC). Description: PBMC IC50 Determination Assay. The class given is cell-based. The settings on record: Homo sapiens; inhibition of IL-1β release; PBMC primed with LPS, stimulated with ATP or nigericin; ELISA or HTRF. The protocol: The compounds of the present disclosure were tested for their inhibitory activity against IL-1β release upon NLRP3 activation in peripheral blood mononuclear cells (PBMC).
Protocol A. PBMC were isolated from buffy coats by density gradient centrifugation on Histopaque-1077 (Sigma, cat no. 10771). Isolated cells were seeded into the wells of a 96-well plate and incubated for 3 h with lipopolysaccharide (LPS). Following medium exchange, the compounds of the present disclosure were added (a single compound per well) and the cells were incubated for 30 min. Next, the cells were stimulated either with ATP (5 mM) or nigericin (10 μM) for 1 h and the cell culture media from the wells were collected for further analysis.
The release of IL-1β into the media was determined by a quantitative detection of IL-1β in the media using an IL-1β enzyme-linked immunosorbent assay (ELISA) Ready-SET-Go!, eBioscience cat. No. 88-7261-88. Briefly, in a first step, high affinity binding plates (Corning, Costar 9018 or NUNC Maxisorp Cat No. 44-2404) were coated overnight at 4° C. with specific capture antibody included in the kit (anti-human IL-1β ref. 14-7018-68). Subsequently, plates were blocked with blocking buffer for 1 h at room temperature (rt) and after washing with a buffer (PBS with 0.05% Tween-20) incubated with protein standard and culture media. After 2 h of incubation at rt, plates were washed and incubated with biotinylated detection antibody included in the kit (anti-human IL-1β Biotin ref. 33-7110-68) for 1 h at rt. Plates were washed and incubated with HRP-streptavidin for 30 min at rt and washed again. The signal was developed after addition of 3,3′,5,5′-tetramethylbenzidine-peroxidase (TMB) until colour appeared and the reaction was stopped by 2 M H2SO4. A microplate spectrophotometer (BioTek) was used to detect signals with 450 nm. The detection range of IL-1β ELISA was […].
Protocol B. PBMC were isolated from buffy coats by density gradient centrifugation on Histopaque-1077 (Sigma, cat no. 10771). Isolated cells were seeded into the wells (280,000 cells/well) of a 96-well plate and incubated for 3 h with lipopolysaccharide (LPS, 1 μg/mL diluted 1000× from a 1 mg/mL stock solution). The compounds of the present disclosure were added (a single compound per well) and the cells were incubated for 30 min. Next, the cells were stimulated with ATP (5 mM final concentration diluted 20× from a 100 mM stock solution) for 1 h and the cell culture media from the wells were collected for further analysis.
The release of IL-1β into the media was determined by quantitative detection of IL-1β in the media using HTRF®, CisBio cat. No. 62HIL1BPEH. Briefly, cell culture supernatant were dispensed directly into the assay plate containing antibodies labelled with the HTRF® donor and acceptor. A microplate spectrophotometer (BMG) was used to detect signals at 655 nm and 620 nm. The detection range of IL-1β HTRF® was 39-6500 pg/mL.

Usually IC50 stands for the point on the concentration scale where inhibition reaches its midpoint. In the case of `Cc1cc(Cl)cc(O)c1-c1cc2ccn(CC3(O)CCN(C)CC3)c2nn1` [Compound 56, 4-{[3-(4-Chloro-2-hydroxy-6-methylphenyl)-7H-pyrrolo[2,3-c]pyridazin-7-yl]methyl}-1-methylpiperidin-4-ol hydrochloride], the IC50 in test [1] and in test [2] was below 30 nM in each case.

Regarding `Cc1cc(Cl)cc(O)c1-c1cc2ccn(CC3CCCN(C)C3)c2nn1` (stereo not shown) [Compound 8, 5-Chloro-3-methyl-2-{7-[(1-methylpiperidin-3-yl)methyl]-7H-pyrrolo[2,3-c]pyridazin-3-yl}phenol], the IC50 in test [1] lay in the range of 100 to 300 nM; in test [2] it was 30 to 100 nM. As for `Cc1cc(Cl)cc(O)c1-c1cc2ncn(C[C@@H]3CCN(C)C3)c2nn1` [Compound 75, 5-Chloro-3-methyl-2-(7-{[(3R)-1-methylpyrrolidin-3-yl]methyl}-7H-imidazo[4,5-c]pyridazin-3-yl)phenol hydrochloride], the figures for the IC50 in test [1] and in test [2] were 100 to 300 nM and 30 to 100 nM, respectively. The corresponding values for `Cc1cc(Cl)cc(O)c1-c1cc2ccn(CCN3CCC(=O)C3)c2nn1` [Compound 45, 1-{2-[3-(4-Chloro-2-hydroxy-6-methylphenyl)-7H-pyrrolo[2,3-c]pyridazin-7-yl]ethyl}pyrrolidin-3-one] are 300 to 1000 nM and 300 to 1000 nM. Regarding `Cc1cc(Cl)cc(O)c1-c1cc2ccn(CC3CCN(C4COC4)CC3)c2nn1` [Compound 15, 5-Chloro-3-methyl-2-(7-{[1-(oxetan-3-yl)piperidin-4-yl]methyl}-7H-pyrrolo[2,3-c]pyridazin-3-yl)phenol], the IC50 in test [1] and in test [2] was 100 to 300 nM throughout.

Turning to `Cc1cc(Cl)cc(O)c1-c1cc2ccn(CC3CCCCN3C)c2nn1` (stereo not shown) [Compound 14, 5-Chloro-3-methyl-2-{7-[(1-methylpiperidin-2-yl)methyl]-7H-pyrrolo[2,3-c]pyridazin-3-yl}phenol], the IC50 in test [1] and in test [2] was 100 to 300 nM each time. In test [1], `Cc1cc(Cl)cc(O)c1-c1cc2ccn(CC(=O)N(C)[C@@H]3CCOC3)c2nn1` [Compound 60, 2-[3-(4-Chloro-2-hydroxy-6-methylphenyl)-7H-pyrrolo[2,3-c]pyridazin-7-yl]-N-methyl-N-[(3R)-oxolan-3-yl]acetamide] had an IC50 of 100 to 300 nM. As to `Cc1cc(Cl)cc(O)c1-c1cc2ccn(CC3CCC(=O)N3C)c2nn1` (stereo not shown) [Compound 65, 5-{[3-(4-Chloro-2-hydroxy-6-methylphenyl)-7H-pyrrolo[2,3-c]pyridazin-7-yl]methyl}-1-methylpyrrolidin-2-one], the IC50 in test [1] and in test [2] was 30 to 100 nM throughout.

`Cc1cc(Cl)cc(O)c1-c1cc2ccn(C[C@H]3CCCCN3C)c2nn1` [Compound 47, 5-Chloro-3-methyl-2-(7-{[(2R)-1-methylpiperidin-2-yl]methyl}-7H-pyrrolo[2,3-c]pyridazin-3-yl)phenol hydrochloride]: the IC50 in test [1] lay in the range of 300 to 1000 nM; in test [2], 100 to 300 nM.

For `CC(=O)N1CCCC(Cn2ccc3cc(-c4c(C)cc(Cl)cc4O)nnc32)C1` (stereo not shown) [Compound 53, 1-(3-{[3-(4-Chloro-2-hydroxy-6-methylphenyl)-7H-pyrrolo[2,3-c]pyridazin-7-yl]methyl}piperidin-1-yl)ethan-1-one], the IC50 in test [1] and in test [2] was 100 to 300 nM each time.

For `Cc1cc(Cl)cc(O)c1-c1cc2ccn(C[C@@H]3CCN(C)C[C@@H]3F)c2nn1` (relative stereo) [Compound 24, Cis-5-chloro-2-{7-[(3-fluoro-1-methylpiperidin-4-yl)methyl]-7H-pyrrolo[2,3-c]pyridazin-3-yl}-3-methylphenol], the IC50 in test [1] lay in the range of 100 to 300 nM; in test [2], 30 to 100 nM. The compound `Cc1cc(Cl)cc(O)c1-c1cc2ccn(CC3CCN(C)C3=O)c2nn1` (stereo not shown) [Compound 66, 3-{[3-(4-Chloro-2-hydroxy-6-methylphenyl)-7H-pyrrolo[2,3-c]pyridazin-7-yl]methyl}-1-methylpyrrolidin-2-one] came in with an IC50 in test [1] of 300 to 1000 nM. In the case of `Cc1cc(Cl)cc(O)c1-c1cc2ncn(C[C@H]3CCCN(C)C3)c2nn1` [Compound 80, 5-Chloro-3-methyl-2-(7-{[(3S)-1-methylpiperidin-3-yl]methyl}-7H-imidazo[4,5-c]pyridazin-3-yl)phenol hydrochloride], the IC50 in test [1] was 100 to 300 nM. Compound `Cc1cc(Cl)cc(O)c1-c1cc2ccn(CC(=O)N(C)[C@@H]3CCN(C)C3)c2nn1` [Compound 62, 2-[3-(4-Chloro-2-hydroxy-6-methylphenyl)-7H-pyrrolo[2,3-c]pyridazin-7-yl]-N-methyl-N-[(3R)-1-methylpyrrolidin-3-yl]acetamide hydrochloride] registered a half-maximal inhibitory concentration (IC50) in test [1] of 300 to 1000 nM.

As to `Cc1cc(Cl)cc(O)c1-c1cc2ccn(CC3CC(=O)N(C)C3)c2nn1` (stereo not shown) [Compound 64, 4-{[3-(4-Chloro-2-hydroxy-6-methylphenyl)-7H-pyrrolo[2,3-c]pyridazin-7-yl]methyl}-1-methylpyrrolidin-2-one], the IC50 in test [1] lay in the range of 100 to 300 nM.

As to `Cc1cc(Cl)cc(O)c1-c1cc2ccn(C3CCN(C)CC3)c2nn1` [Compound 67, 5-Chloro-3-methyl-2-[7-(1-methylpiperidin-4-yl)-7H-pyrrolo[2,3-c]pyridazin-3-yl]phenol], the half-inhibitory concentration (IC50) in test [1] is 300 to 1000 nM. `Cc1cc(Cl)cc(O)c1-c1cc2ccn([C@@H]3CCN(C)C3=O)c2nn1` [Compound 69, (3R)-3-[3-(4-Chloro-2-hydroxy-6-methylphenyl)-7H-pyrrolo[2,3-c]pyridazin-7-yl]-1-methylpyrrolidin-2-one] showed an IC50 in test [1] of 300 to 1000 nM. In turn, `Cc1cc(Cl)cc(O)c1-c1cc2ccn(CC3CCC(=O)N(C)C3)c2nn1` (stereo not shown) [Compound 70, 5-{[3-(4-Chloro-2-hydroxy-6-methylphenyl)-7H-pyrrolo[2,3-c]pyridazin-7-yl]methyl}-1-methylpiperidin-2-one] returned an IC50 in test [1] of 100 to 300 nM. On the same count and under the same terms, the figure for `Cc1cc(Cl)cc(O)c1-c1cc2ccn(CC(=O)N(C)[C@H]3CCN(C)C3)c2nn1` [Compound 61, 2-[3-(4-Chloro-2-hydroxy-6-methylphenyl)-7H-pyrrolo[2,3-c]pyridazin-7-yl]-N-methyl-N-[(3S)-1-methylpyrrolidin-3-yl]acetamide hydrochloride] is 100 to 300 nM; for `Cc1cc(Cl)cc(O)c1-c1cc2ncn(C[C@@H]3CCCN(C)C3)c2nn1` [Compound 79, 5-Chloro-3-methyl-2-(7-{[(3R)-1-methylpiperidin-3-yl]methyl}-7H-imidazo[4,5-c]pyridazin-3-yl)phenol hydrochloride] it is 30 to 100 nM. Take `CN1CCC(Cn2ccc3cc(-c4ccc(C#N)cc4O)nnc32)CC1` [Compound 68, 3-Hydroxy-4-{7-[(1-methylpiperidin-4-yl)methyl]-7H-pyrrolo[2,3-c]pyridazin-3-yl}benzonitrile]: in test [1], the 50% inhibitory concentration (IC50) is 3000 to 10000 nM.
